In patent US20250145585A1, “HETEROCYCLIC INHIBITORS OF IGF-1R FOR TREATMENT OF DISEASE” (HORIZON THERAPEUTICS IRELAND DAC, priority 2023, published 2025):

Biological target: T1, IGF-1R (Homo sapiens, UniProt P08069)
T1 construct: expressed in transfected cells
Assay: Example B-2: IGF-1R Assay (PathHunter cell lines, EC80 agonist challenge, chemiluminescent detection)
Format: cell-based
Details: PathHunter cells, compound 60 minutes at 37° C., EC80 agonist 3 hours; read-out: IC50, Biological Activity against IGF-1R (Table B2)
Method: PathHunter cell lines were expanded from freezer stocks according to standard procedures. Cells were seeded in a total volume of 20 μL into white walled, 384-well microplates and incubated for the appropriate time prior to testing.
Cells are pre-incubated with compound followed by EC80 agonist challenge as follows: • R. 1. Intermediate dilution of sample stocks was performed to generate 5× sample in assay buffer. • 2. 5 μL of 5× sample was added to cells and incubated at 37° C. for 60 minutes. Vehicle concentration was 1%. • 3. 5 IL of 6× EC80 agonist in assay buffer was added to the cells and incubated at room temperature for 3 hours.
Assay signal was generated through a single addition of 12.5 or 15 μL (50% v/v) of PathHunter Detection reagent cocktail for agonist and antagonist assays respectively, followed by a one hour incubation at room temperature. Microplates were read following signal generation with a PerkinElmer Envision™ instrument for chemilumine-scent signal detection.
Compound activity was analyzed using CBIS data analysis suite (ChemInnovation, CA). Percentage inhibition was calculated using the following formula: % Inhibition=100%×(1−(mean RLU of test sample−mean RLU of vehicle control)/(mean RLU of EC80 control−mean RLU of vehicle control)). The activity for representative examples of the invention is shown in the following table, wherein A: IC50≤500 nM; B: 500 nM<IC50≤2 μM; C: 2 μM<IC50≤10 μM; D: IC50>10 μM.

T1 sequence (P08069 31-1367): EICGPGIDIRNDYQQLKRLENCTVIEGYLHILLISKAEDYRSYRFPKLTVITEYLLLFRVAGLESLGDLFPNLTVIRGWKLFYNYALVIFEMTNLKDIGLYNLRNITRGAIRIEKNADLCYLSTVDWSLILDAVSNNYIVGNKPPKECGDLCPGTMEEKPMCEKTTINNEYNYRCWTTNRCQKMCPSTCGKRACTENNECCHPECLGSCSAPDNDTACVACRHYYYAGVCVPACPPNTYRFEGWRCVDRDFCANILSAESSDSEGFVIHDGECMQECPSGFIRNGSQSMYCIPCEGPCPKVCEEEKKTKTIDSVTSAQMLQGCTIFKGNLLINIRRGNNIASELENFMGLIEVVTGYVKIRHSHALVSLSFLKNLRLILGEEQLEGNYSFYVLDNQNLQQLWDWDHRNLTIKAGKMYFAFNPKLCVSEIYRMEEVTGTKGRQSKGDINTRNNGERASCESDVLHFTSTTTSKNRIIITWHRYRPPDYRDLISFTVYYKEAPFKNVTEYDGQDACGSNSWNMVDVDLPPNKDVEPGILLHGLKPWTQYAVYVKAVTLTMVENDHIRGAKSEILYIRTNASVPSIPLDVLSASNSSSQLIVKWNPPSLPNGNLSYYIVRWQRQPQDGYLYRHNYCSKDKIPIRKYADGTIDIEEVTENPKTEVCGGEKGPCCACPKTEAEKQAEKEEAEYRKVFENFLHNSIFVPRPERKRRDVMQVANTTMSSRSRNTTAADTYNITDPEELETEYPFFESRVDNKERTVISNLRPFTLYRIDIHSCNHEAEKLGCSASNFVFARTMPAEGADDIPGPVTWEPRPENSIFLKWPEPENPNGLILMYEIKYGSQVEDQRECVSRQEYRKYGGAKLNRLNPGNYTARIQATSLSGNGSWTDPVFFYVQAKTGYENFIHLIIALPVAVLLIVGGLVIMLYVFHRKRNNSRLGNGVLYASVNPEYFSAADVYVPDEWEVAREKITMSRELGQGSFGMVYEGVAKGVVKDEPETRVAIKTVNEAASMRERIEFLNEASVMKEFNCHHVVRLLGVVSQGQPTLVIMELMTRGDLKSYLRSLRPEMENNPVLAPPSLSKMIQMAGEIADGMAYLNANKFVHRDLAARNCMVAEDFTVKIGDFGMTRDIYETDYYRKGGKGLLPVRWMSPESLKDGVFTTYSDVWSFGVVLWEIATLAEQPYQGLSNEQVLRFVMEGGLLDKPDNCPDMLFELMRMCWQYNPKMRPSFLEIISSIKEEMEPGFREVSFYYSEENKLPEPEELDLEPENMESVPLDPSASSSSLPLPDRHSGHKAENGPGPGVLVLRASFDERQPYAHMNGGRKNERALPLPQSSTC

Row | Compound | IC50 [µM]
1 | CC1(C)C(=O)N(c2ccc(C3(C(F)(F)F)CC3)cc2)C(=O)N1Cc1ccnc(NCc2cc[nH]n2)c1 [Compound 184, 1-((2-(((1H-pyrazol-3-yl)methyl)amino)pyridin-4-yl)methyl)-5,5-dimethyl-3-(4-(1-(trifluoromethyl)cyclopropyl)phenyl) imidazolidine-2,4-dione] | ≤ 0.5
2 | C[C@@H](CC#N)Nc1cc(CN2C(=O)N(c3ccc4c(c3)N(S(C)(=O)=O)CC43CCC3)C(=O)C2(C)C)ccn1 [Compound 221, (S)-3-((4-((5,5-dimethyl-3-(1′-(methylsulfonyl)spiro[cyclobutane-1,3′-indolin]-6′-yl)-2,4-dioxoimidazolidin-1-yl)methyl)pyridin-2-yl)amino)butanenitrile] | ≤ 0.5
3 | CC(C)(C)C(=O)Oc1cc2c(CN3C(=O)N(c4ccc(C5(C(F)(F)F)CC5)cc4)C(=O)C3(C)C)ccnc2[nH]1 [Compound 77, 4-((5,5-dimethyl-2,4-dioxo-3-(4-(1-(trifluoromethyl)cyclopropyl)phenyl)imidazolidin-1-yl)methyl)-1H-pyrrolo [2,3-b]pyridin-2-yl pivalate] | ≤ 0.5
4 | CC1(C)C(=O)N(c2ccc(C3(C(F)(F)F)CC3)cc2)C(=O)N1Cc1ccnc(NC2CCN(S(C)(=O)=O)C2)c1 (stereo not drawn) [Compound 146, 5,5-dimethyl-1-((2-((1-(methylsulfonyl)pyrrolidin-3-yl)amino)pyridin-4-yl)methyl)-3-(4-(1-(trifluoromethyl)cyclopropyl)phenyl) imidazolidine-2,4-dione] | 0.5 to 2
5 | CN1CC(C)(C)c2ccc(N3C(=O)N(Cc4ccnc(NC5CCOCC5)c4)C(C)(C)C3=O)cc21 [Compound 210, 5,5-dimethyl-1-((2-((tetrahydro-2H-pyran-4-yl)amino)pyridin-4-yl)methyl)-3-(1,3,3-trimethylindolin-6-yl)imidazolidine-2,4-dione] | ≤ 0.5
6 | CC1(c2ccc(N3C(=O)N(Cc4ccnc5c4CC(=O)N5)C(C)(C)C3=O)cc2)CC1 [Compound 48, 5,5-dimethyl-3-(4-(1-methylcyclopropyl)phenyl)-1-((2-oxo-2,3-dihydro-1H-pyrrolo[2,3-b]pyridin-4-yl)methyl)imidazolidine-2,4-dione] | ≤ 0.5
7 | Cn1nc(C(C)(C)C)c(Br)c1N1C(=O)N(Cc2ccnc3c2CC(=O)N3)C(C)(C)C1=O [Compound 47, 3-(4-bromo-3-(tert-butyl)-1-methyl-1H-pyrazol-5-yl)-5,5-dimethyl-1-((2-oxo-2,3-dihydro-1H-pyrrolo[2,3-b]pyridin-4-yl)methyl)imidazolidine-2,4-dione] | 2 to 10
8 | CC(C)(C#N)c1ccc(N2C(=O)N(Cc3ccnc(NCC(F)F)c3)C(C)(C)C2=O)cc1 [Compound 154, 2-(4-(3-((2-((2,2-difluoroethyl)amino)pyridin-4-yl)methyl)-4,4-dimethyl-2,5-dioxoimidazolidin-1-yl)phenyl)-2-methylpropanenitrile] | 0.5 to 2
9 | CC1(C)C(=O)N(c2ccc(S(=O)(=O)C(F)(F)F)cc2)C(=O)N1Cc1ccnc(NC2CS(=O)(=O)C2)c1 [Compound 327, 1-((2-((1,1-dioxidothietan-3-yl)amino)pyridin-4-yl)methyl)-5,5-dimethyl-3-(4-((trifluoromethyl)sulfonyl)phenyl) imidazolidine-2,4-dione] | 2 to 10
10 | CC1(C)C(=O)N(c2ccc3c(c2)N(S(C)(=O)=O)CC32CC2)C(=O)N1Cc1ccnc2c1CC(=O)N2 [Compound 45, 5,5-dimethyl-3-(1′-(methylsulfonyl)spiro[cyclopropane-1,3′-indolin]-6′-yl)-1-((2-oxo-2,3-dihydro-1H-pyrrolo[2,3-b]pyridin-4-yl)methyl)imidazolidine-2,4-dione] | ≤ 0.5
11 | CC1(C)C(=O)N(c2ccc(C(C)(C)C(F)(F)F)cc2)C(=O)N1Cc1ccnc2c1CC(=O)N2 [Compound 57, 5,5-dimethyl-1-((2-oxo-2,3-dihydro-1H-pyrrolo[2,3-b]pyridin-4-yl)methyl)-3-(4-(1,1,1-trifluoro-2-methylpropan-2-yl)phenyl)imidazolidine-2,4-dione] | ≤ 0.5
12 | CC(C)(C#N)c1ccc(N2C(=O)N(Cc3ccnc(NC4CC4)c3)C(C)(C)C2=O)cc1 [Compound 149, 2-(4-(3-((2-(cyclopropylamino)pyridin-4-yl)methyl)-4,4-dimethyl-2,5-dioxoimidazolidin-1-yl)phenyl)-2-methylpropanenitrile] | ≤ 0.5

Results, then the compound that gave them:

Row | IC50 [µM] | Compound
13 | > 10 | CC1(C)C(=O)N(c2ccc(OC(F)(F)F)c(C#N)c2)C(=O)N1Cc1ccnc2c1CC(=O)N2 [Compound 288, 5-(4,4-dimethyl-2,5-dioxo-3-((2-oxo-2,3-dihydro-1H-pyrrolo[2,3-b]pyridin-4-yl)methyl)imidazolidin-1-yl)-2-(trifluoromethoxy)benzonitrile]
14 | ≤ 0.5 | C[C@@H](CC#N)Nc1cc(CN2C(=O)N(c3ccc4c(c3)N(S(C)(=O)=O)CC43CC3)C(=O)C2(C)C)ccn1 [Compound 230, (S)-3-((4-((5,5-dimethyl-3-(1′-(methylsulfonyl)spiro[cyclopropane-1,3′-indolin]-6′-yl)-2,4-dioxoimidazolidin-1-yl)methyl)pyridin-2-yl)amino)butanenitrile]
15 | ≤ 0.5 | CC1(C)C(=O)N(c2ccc(C3(C(F)(F)F)CC3)cc2)C(=O)N1Cc1ccnc(N[C@H]2[C@@H]3COC[C@@H]32)c1 [Compound 148, 1-((2-(((1R,5S,6r)-3-oxabicyclo[3.1.0]hexan-6-yl)amino)pyridin-4-yl)methyl)-5,5-dimethyl-3-(4-(1-(trifluoromethyl)cyclopropyl)phenyl) imidazolidine-2,4-dione]
16 | ≤ 0.5 | CO[C@H](C)CNc1cc(CN2C(=O)N(c3ccc(S(=O)(=O)C(F)(F)F)cc3)C(=O)C2(C)C)ccn1 [Compound 338, (R)-1-((2-((2-methoxypropyl)amino)pyridin-4-yl)methyl)-5,5-dimethyl-3-(4-((trifluoromethyl)sulfonyl)phenyl) imidazolidine-2,4-dione]
17 | ≤ 0.5 | CC1(C)Cc2ccc(N3C(=O)N(Cc4ccnc(N[C@H]5[C@@H]6COC[C@@H]65)c4)C(C)(C)C3=O)cc2O1 [Compound 249, 1-((2-(((1R,5S,6r)-3-oxabicyclo[3.1.0]hexan-6-yl)amino)pyridin-4-yl)methyl)-3-(2,2-dimethyl-2,3-dihydrobenzofuran-6-yl)-5,5-dimethylimidazolidine-2,4-dione]
18 | 0.5 to 2 | CC1(C)C(=O)N(c2ccc(S(=O)(=O)C(F)(F)F)cc2)C(=O)N1Cc1ccnc(N[C@@H]2[C@@H]3COC[C@@H]32)c1 [Compound 335, 1-((2-(((1R,5S,6s)-3-oxabicyclo[3.1.0]hexan-6-yl)amino)pyridin-4-yl)methyl)-5,5-dimethyl-3-(4-((trifluoromethyl)sulfonyl)phenyl) imidazolidine-2,4-dione]
19 | ≤ 0.5 | CC1(C)CN(S(C)(=O)=O)c2cc(N3C(=O)N(Cc4ccnc(N[C@H]5CCOC[C@@H]5F)c4)C(C)(C)C3=O)ccc21 [Compound 241, 3-(3,3-dimethyl-1-(methylsulfonyl)indolin-6-yl)-1-((2-(((3R,4S)-3-fluorotetrahydro-2H-pyran-4-yl)amino)pyridin-4-yl)methyl)-5,5-dimethylimidazolidine-2,4-dione]
20 | ≤ 0.5 | CC1(C)C(=O)N(c2ccc3c(c2)N(S(C)(=O)=O)CC32CCC2)C(=O)N1Cc1ccnc(NCc2cccnc2)c1 [Compound 244, 5,5-dimethyl-3-(1′-(methylsulfonyl)spiro[cyclobutane-1,3′-indolin]-6′-yl)-1-((2-((pyridin-3-ylmethyl)amino)pyridin-4-yl)methyl)imidazolidine-2,4-dione]
21 | ≤ 0.5 | CC1(C)C(=O)N(c2ccc3c(c2)N(S(C)(=O)=O)CC32CC2)C(=O)N1Cc1ccnc(NC2CCOCC2)c1 [Compound 212, 5,5-dimethyl-3-(1′-(methylsulfonyl)spiro[cyclopropane-1,3′-indolin]-6′-yl)-1-((2-((tetrahydro-2H-pyran-4-yl)amino)pyridin-4-yl)methyl)imidazolidine-2,4-dione]
22 | 2 to 10 | CC1(C)C(=O)N(c2ccc(S(=O)(=O)C(F)(F)F)cc2)C(=O)N1Cc1ccnc(N[C@H]2CCOCC2(F)F)c1 [Compound 343, (S)-1-((2-((3,3-difluorotetrahydro-2H-pyran-4-yl)amino)pyridin-4-yl)methyl)-5,5-dimethyl-3-(4-((trifluoromethyl)sulfonyl)phenyl) imidazolidine-2,4-dione]
23 | ≤ 0.5 | CC1(C)C(=O)N(c2ccc3c(c2)N(S(C)(=O)=O)CC32CCC2)C(=O)N1Cc1ccnc(N[C@@H]2C[C@@H]2F)c1 [Compound 240, 1-((2-(((1R,2S)-2-fluorocyclopropyl)amino)pyridin-4-yl)methyl)-5,5-dimethyl-3-(1′-(methylsulfonyl)spiro[cyclobutane-1,3′-indolin]-6′-yl)imidazolidine-2,4-dione]
24 | ≤ 0.5 | CC(Nc1cc(CN2C(=O)N(c3ccc(C4(C(F)(F)F)CC4)cc3)C(=O)C2(C)C)ccn1)c1cnn(C)c1 (stereo not drawn) [Compound 167, 5,5-dimethyl-1-((2-((1-(1-methyl-1H-pyrazol-4-yl)ethyl)amino)pyridin-4-yl)methyl)-3-(4-(1-(trifluoromethyl)cyclopropyl)phenyl) imidazolidine-2,4-dione]
